The values that follow are results of earlier work, collected in US10174388B2, “Method for selection of agents influencing intestinal motility disorders and pain” (BioGaia AB, priority 2012, dated 2019).

Like-named read-outs stand apart in the source and are kept apart here.

For the series the following is noted: baseline 197 minutes in both groups.

For the substance simethicone, the “median daily crying time” value (day 7) was 177 min and the “median daily crying time” value (day 28) was 145 min.
